# From patent US7928139B2 (Amgen Inc., priority 2006, dated 2011)
# pIC50: −log10 of the molar value.
# Biological target: HIF PHD2 (Homo sapiens, UniProt Q9GZT9)
# Test: PHD2 inhibition assay (TR-FRET, VCB-Eu detection of hydroxylated P564-HIF1α peptide)
# Assay type: biochemical
# Settings: 2 nM PHD2, 100 nM P564-HIF1α peptide, 0.25 μM 2-oxoglutarate, 100 μM FeCl2, 2 mM ascorbic acid
# Description: Inhibition of HIF PHD2 activity was quantified utilizing the TR-FRET technology. HIF PHD2 catalyzes a hydroxyl modification on the proline residue of the P564-HIF1α peptide substrate (Biotin-DLEMLAPYIPMDDDFQL (SEQ ID NO: 7)) resulting in recognition and binding of the europylated Von Hippel-Lindau protein (pVHL), elongin B and elongin C heterotrimeric (VCB-Eu) complex.
# The PHD2 inhibition assay was executed by addition of freshly dissolved FeCl2 to 178.57 μM (100 μM final concentration) in PHD2 Reaction Buffer containing 30 mM MES, pH 6, 10 mM NaCl, 0.25% Brij-35, 0.01% BSA, and 1% DMSO. 28 μL of the iron solution and 2 μL of inhibitor compounds serially diluted in 100% DMSO (5% DMSO final) were added to black polypropylene 96-well microtiter plates. To that, 10 μL of 10 nM PHD2 (2 nM final) was added to all wells of the plate except for the 8 wells of column 12 (LO control), and allowed to incubate at room temperature on the shaker for one hour. Column 6 was the HI control containing PHD2 enzyme and 5% DMSO vehicle, but no inhibitor compound. To initiate the PHD2 enzymatic reaction, 10 μL of a solution containing 500 nM P564-HIF1α peptide (100 nM final), 10 mM ascorbic acid (2 mM final), and 1.25 μM 2-oxoglutarate (α-ketoglutarate; 0.25 μM final) in PHD2 Reaction Buffer was added to all wells of the plate and allowed to incubate on the shaker at room temperature for one hour.
# The reaction was terminated by addition of 25 μL TR-FRET Buffer (50 mM TRIS-HCl, pH 9, 100 mM NaCl, 0.05% BSA, and 0.5% Tween-20) containing 150 mM succinate (product inhibitor; 50 mM final), 75 nM streptavidin-APC (25 nM final), and 7.5 nM VCB-Eu (2.5 nM final). The TR-FRET detection reagents were placed on a shaker for 1 hour to reach binding equilibrium before reading on the Discovery platform (PerkinElmer). Europium is excited at 315 nm and phosphoresces at 615 nm with a large Stoke's shift. APC, in turn, emits at 655 nm upon excitation at 615 nm. The TR-FRET signal is measured as the ratio of the APC 655 nm signal divided by the internal europium reference 615 nm emission signal.
# The POC (percentage of control) was determined by comparing the signal from hydroxylated peptide substrate in the enzyme reaction containing inhibitor compound with that from PHD2 enzyme with DMSO vehicle alone (HI control), and no enzyme (LO control). POC was calculated using the formula: % control (POC)=(cpd−average LO)/(average HI−average LO)*100. Data (consisting of POC and inhibitor concentration in μM) was fitted to a 4-parameter equation (y=A+((B−A)/(1+((x/C)^D))), where A is the minimum y (POC) value, B is the maximum y (POC), C is the x (cpd concentration) at the point of inflection and D is the slope factor) using a Levenburg-Marquardt non-linear regression algorithm.
# HIF PHD2, sequence (Q9GZT9 whole entry): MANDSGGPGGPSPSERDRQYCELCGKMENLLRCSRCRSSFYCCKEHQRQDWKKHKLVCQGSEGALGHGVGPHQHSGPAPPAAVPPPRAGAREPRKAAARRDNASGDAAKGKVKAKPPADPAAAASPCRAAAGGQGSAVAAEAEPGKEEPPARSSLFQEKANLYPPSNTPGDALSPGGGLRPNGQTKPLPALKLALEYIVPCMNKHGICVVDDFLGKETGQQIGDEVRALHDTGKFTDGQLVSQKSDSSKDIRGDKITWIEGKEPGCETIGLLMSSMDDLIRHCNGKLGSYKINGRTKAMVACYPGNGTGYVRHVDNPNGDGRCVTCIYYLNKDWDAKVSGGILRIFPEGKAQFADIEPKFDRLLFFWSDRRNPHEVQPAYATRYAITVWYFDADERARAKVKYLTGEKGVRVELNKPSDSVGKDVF
row,SMILES,pIC50
1,"C[C@@]1(c2ccc(Cl)cc2)C(=O)C(C(=O)NCC(=O)O)=C(O)c2cc(Cl)ccc21 (single isomer, unassigned) [Example 29]",6.30 to 7.00
2,"C[C@]1(c2ccc(Cl)cc2)C(=O)C(C(=O)NCC(=O)O)=C(O)c2cc(Cl)ccc21 (single isomer, unassigned) [Example 30]",6.00 to 6.30
3,"CCC1(C)C(=O)C(C(=O)NCC(=O)O)=C(O)c2cc(Cl)ccc21 (single isomer, unassigned) [Example 78]",6.30 to 7.00
4,"C[C@@]1(c2ccccc2)C(O)=C(C(=O)NCC(=O)O)C(=O)c2ccccc21 (single isomer, unassigned) [Example 114, N-(((4S)-3-Hydroxy-4-methyl-1-oxo-4-phenyl-1,4-dihydro-2-naphthalenyl)carbonyl)glycine or N-(((4R)-3-Hydroxy-4-methyl-1-oxo-4-phenyl-1,4-dihydro-2-naphthalenyl)carbonyl)glycine]",6.30 to 7.00
5,"C[C@@]1(C#N)C(=O)C(C(=O)CCC(=O)O)=C(O)c2cc(Cl)ccc21 (single isomer, unassigned) [Example 120, 4-(7-chloro-4-cyano-1-hydroxy-4-methyl-3-oxo-3,4-dihydronaphthalen-2-yl)-4-oxobutanoic acid]",5.00 to 6.00
6,"C[C@@]1(C#N)C(=O)C(C(=O)CCC(=O)O)=C(O)c2cc(Cl)ccc21 (single isomer, unassigned) [Example 124, (R)-4-(7-chloro-4-cyano-1-hydroxy-4-methyl-3-oxo-3,4-dihydronaphthalen-2-yl)-4-oxobutanoic acid or (S)-4-(7-chloro-4-cyano-1-hydroxy-4-methyl-3-oxo-3,4-dihydronaphthalen-2-yl)-4-oxobutanoic acid]",5.00 to 6.00
7,"C[C@@]1(C#N)C(=O)C(C(=O)NCC(=O)O)=C(O)c2cc(F)ccc21 (single isomer, unassigned) [Example 135, (R)-2-(1-cyano-6-fluoro-4-hydroxy-1-methyl-2-oxo-1,2-dihydronaphthalene-3-carboxamido) acetic acid or (S)-2-(1-cyano-6-fluoro-4-hydroxy-1-methyl-2-oxo-1,2-dihydronaphthalene-3-carboxamido) acetic acid]",> 7.00
8,"C[C@@]1(C#N)C(=O)C(C(=O)NCC(=O)O)=C(O)c2ccc(F)cc21 (single isomer, unassigned) [Example 137, (R)-2-(1-cyano-7-fluoro-4-hydroxy-1-methyl-2-oxo-1,2-dihydronaphthalene-3-carboxamido) acetic acid or (S)-2-(1-cyano-7-fluoro-4-hydroxy-1-methyl-2-oxo-1,2-dihydronaphthalene-3-carboxamido) acetic acid]",> 7.00
9,"CC1(C#N)C(=O)C(C(=O)NCC(=O)O)=C(O)c2ccc(Br)cc21 (single isomer, unassigned) [Example 139]",> 7.00
10,"CC1(C#N)C(=O)C(C(=O)NCC(=O)O)=C(O)c2ccc(Cl)cc21 (single isomer, unassigned) [Example 141]",> 7.00
11,"C[C@@]1(C#N)C(=O)C(C(=O)NCC(=O)O)=C(O)c2cc(F)c(F)cc21 (single isomer, unassigned) [Example 142, (R)-2-(1-cyano-6,7-difluoro-4-hydroxy-1-methyl-2-oxo-1,2-dihydronaphthalene-3-carboxamido) acetic acid or (S)-2-(1-cyano-6,7-difluoro-4-hydroxy-1-methyl-2-oxo-1,2-dihydronaphthalene-3-carboxamido) acetic acid]",> 7.00
12,"O=C(O)CNC(=O)C1=C(O)c2cc(Cl)ccc2C2(CCOCC2)C1=O [Example 1, N-((6-Chloro-4-hydroxy-2-oxo-2′,3′,5′,6′-tetrahydro-2H-spiro[naphthalene-1,4′-pyran]-3-yl)carbonyl)glycine]",> 7.00
13,"CC1(C)C(=O)C(C(=O)NCC(=O)O)=C(O)c2cc(Cl)ccc21 [Example 2, N-((6-Chloro-4-hydroxy-1,1-dimethyl-2-oxo-naphthalen-3-yl)carbonyl)glycine]",> 7.00
14,"O=C(O)CNC(=O)C1=C(O)c2cc(C(F)(F)F)ccc2C2(CCOCC2)C1=O [Example 3, N-((4-Hydroxy-2-oxo-6-(trifluoromethyl)-2′,3′,5′,6′-tetrahydro-2H-spiro[naphthalene-1,4′-pyran]-3-yl)carbonyl)glycine]",> 7.00
15,"CC1(C)C(=O)C(C(=O)NCC(=O)O)=C(O)c2cc(C(F)(F)F)ccc21 [Example 4, N-((4-Hydroxy-1,1-dimethyl-2-oxo-6-(trifluoromethyl)-naphthalen-3-yl)carbonyl)glycine]",> 7.00
16,"CC1(C)C(=O)C(C(=O)NCC(=O)O)=C(O)c2cc(-c3cccnc3)ccc21 [Example 5, N-((4-Hydroxy-1,1-dimethyl-2-oxo-6-(3-pyridinyl)-naphthalen-3-yl)carbonyl)glycine]",> 7.00
17,"Cc1ccc(-c2ccc3c(c2)C(O)=C(C(=O)NCC(=O)O)C(=O)C3(C)C)c(F)n1 [Example 6, N-((6-(2-Fluoro-6-methyl-3-pyridinyl)-4-hydroxy-1,1-dimethyl-2-oxo-naphthalen-3-yl)carbonyl)glycine]",6.30 to 7.00
18,"Cc1cc(-c2ccc3c(c2)C(O)=C(C(=O)NCC(=O)O)C(=O)C3(C)C)ccn1 [Example 7, N-((4-Hydroxy-1,1-dimethyl-6-(2-methyl-4-pyridinyl)-2-oxo-naphthalen-3-yl)carbonyl)glycine]",6.30 to 7.00
19,"Cc1ncccc1-c1ccc2c(c1)C(O)=C(C(=O)NCC(=O)O)C(=O)C2(C)C [Example 8, N-((4-Hydroxy-1,1-dimethyl-6-(2-methyl-3-pyridinyl)-2-oxo-naphthalen-3-yl)carbonyl)glycine]",6.30 to 7.00
20,"CC1(C)C(=O)C(C(=O)NCC(=O)O)=C(O)c2cc(-c3cncc(F)c3)ccc21 [Example 9, N-((6-(5-Fluoro-3-pyridinyl)-4-hydroxy-1,1-dimethyl-2-oxo-naphthalen-3-yl)carbonyl)glycine]",5.00 to 6.00
21,"O=C(O)CNC(=O)C1=C(O)c2cc(Cl)ccc2[C@@]2(CCOC2)C1=O [Example 10, N-(((3R)-6′-Chloro-4′-hydroxy-2′-oxo-4,5-dihydro-spiro[furan-3,1′-naphthalen]-3′-yl)carbonyl)glycine]",> 7.00
22,"O=C(O)CNC(=O)C1=C(O)c2cc(Cl)ccc2[C@]2(CCOC2)C1=O [Example 11, N-(((3S)-6′-Chloro-4′-hydroxy-2′-oxo-4,5-dihydro-spiro[furan-3,1′-naphthalen]-3′-yl)carbonyl)glycine]",> 7.00
23,"O=C(O)CNC(=O)C1=C(O)c2cc(Cl)ccc2C2(CCOC2)C1=O (stereo not shown) [Example 12, N-((6′-Chloro-4′-hydroxy-2′-oxo-4,5-dihydro-2′H-spiro[furan-3,1′-naphthalen]-3′-yl)carbonyl)glycine]",> 7.00
24,"CC1(C)C(=O)C(C(=O)NCC(=O)O)=C(O)c2cc(F)ccc21 [Example 13, N-((6-Fluoro-4-hydroxy-1,1-dimethyl-2-oxo-naphthalene-3-yl)carbonyl)glycine]",> 7.00
25,"COc1cc2c(cc1Br)C1(CCOCC1)C(=O)C(C(=O)NCC(=O)O)=C2O [Example 14, N-((7-Bromo-4-hydroxy-6-(methyloxy)-2-oxo-2′,3′,5′,6′-tetrahydro-spiro[naphthalene-1,4′-pyran]-3-yl)carbonyl)glycine]",> 7.00
26,"CCC1(C)C(=O)C(C(=O)NCC(=O)O)=C(O)c2cc(Cl)ccc21 (stereo not shown) [Example 15, N-((6-Chloro-1-ethyl-4-hydroxy-1-methyl-2-oxo-naphthalen-3-yl)carbonyl)glycine]",6.30 to 7.00
27,"COc1ccc2c(c1)C(O)=C(C(=O)NCC(=O)O)C(=O)C21CCOCC1 [Example 16, N-((4-Hydroxy-6-(methyloxy)-2-oxo-2′,3′,5′,6′-tetrahydro-spiro[naphthalene-1,4′-pyran]-3-yl)carbonyl)glycine]",> 7.00
28,"O=C(O)CNC(=O)C1=C(O)c2cc(F)ccc2C2(CCOCC2)C1=O [Example 17, N-((6-Fluoro-4-hydroxy-2-oxo-2′,3′,5′,6′-tetrahydro-spiro[naphthalene-1,4′-pyran]-3-yl)carbonyl)glycine]",> 7.00
